Results reported in EP4635958A1, “PYRIMIDINE-CONTAINING POLYCYCLIC DERIVATIVE INHIBITOR, AND PREPARATION METHOD THEREFOR AND USE THEREOF” (Shanghai Hansoh Biomedical Co., Ltd., priority 2022, dated 2024).
Where a name gives a salt, the structure may show the parent alone. Read-outs that look alike come from different tables or passages of the source.

What was measured:
[1] = Pharmacokinetic determination in mice (IV and PO, plasma, LCMS/MS); format: in vivo, Balb/c mice; conditions: for F: PO 30 mg/kg vs IV 1 mg/kg; for AUC(0-inf) / C0 / clearance / half-life / Cmax / Tmax: mouse, in vivo, plasma; for C0: read-out: C0; for clearance: read-out: CL; for half-life: read-out: T1/2 (converted); for Cmax: read-out: Cmax; for Tmax: read-out: Tmax
Procedure, shortened: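 Male Balb/c mice, fasted overnight (n=3 per route): PO 30 mg/kg in 10% Captisol/50 mM citrate pH 5.0, or IV 1 mg/kg in 5% DMSO/10% Solutol HS15/85% PBS. Orbital blood sampled predose to 24 h; EDTA plasma analysed by LC-MS/MS.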

[2] = Plasma stability test, mouse plasma; format: in vitro ADME; conditions: Mouse plasma, 37°C; for half-life: read-out: t1/2 (converted);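 on all read-outs here: test compound quantified by LC-MS using positive-mode electrospray ionization and MRM scanning, with an internal standard added in acetonitrile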
Method: (§1) Liquid chromatography-mass spectrometer, centrifuge, vortexer, pipette, continuous dispenser, 96-well plate, 50% methanol aqueous solution, acetonitrile solution containing internal standard, blank matrix (plasma of rat, dog, or human), Propantheline (propantheline bromide), Mevinolin (lovastatin), and test compound.
(§2) After whole blood was collected from animals or humans, it was placed in a test tube containing an anticoagulant and centrifuged at 3500 rpm for 10 min to collect the upper pale yellow plasma.
(§3) The compound was weighed and the stock solution was formulated with DMSO and the working solution was formulated with 100 mM phosphate buffer.
(§4) • Instrument: API4000 liquid chromatography-mass spectrometer, AB Company, USA; • the ion source was electrospray ionization source (ESI); • drying gas (N2) temperature was 500°C; • electrospray voltage was 5500V; • the detection method was positive ion detection; • the scanning method was selected reaction monitoring (MRM); • the scanning time was 0.1s.

[3] = Plasma stability test, rat plasma; conditions: for Remaining rate (%) 0 min / Remaining rate (%) 15 min / Remaining rate (%) 30 min / Remaining rate (%) 60 min / Remaining rate (%) 120 min: Rat plasma, 37°C; for half-life: rat, plasma
Excerpt: The purpose of this experiment was to detect the stability of the example compounds in plasma of mouse, rat, dog and human.
as §1, §2, §3
2.36 mg of propantheline bromide was weighed and diluted with 1 mL of DMSO into a 10 mM stock solution; 10 µL of 10 mM stock solution was pipetted into 1 mL of 100 mM phosphate buffer to achieve a final concentration of 100 µM.
4.05 mg of lovastatin was weighed and diluted with 1 mL of DMSO into a 10 mM stock solution; 10 µL of 10 mM stock solution was pipetted into 1 mL of 100 mM phosphate buffer to achieve a final concentration of 100 µM.
• 1) In a 96-well plate, 285 µL of plasma and 15 µL of 10 µM compound (test compound) were added in sequence and incubated at 37°C. • 2) 40 µL was taken at 0, 15, 30, 60, 90, and 120 min (the sampling point can be fine-tuned) and 160 µL of acetonitrile stop solution containing internal standard was add. • 3) After centrifugation (3500 rpm, 10 min), 50 µL of supernatant was taken, and 50 µL of DDH2O added for dilution and then the obtained mixture was injected into LC-MS/MS.
• Instruments: Shimadzu LC-20 AD • Chromatographic column: Phenomenex Gemiu ® C18 (50*4.6 mm, 5 µm particle size); • mobile phase: A: Acetonitrile, B: 0.1% formic acid solution 0-8 min: 5% A→95% A, 2.0-2.1 min: 90%A→5% A; Flow rate: 0.8 mL/min; Run time: 5.0 min; Injection volume: 5 µL.
as §4

[4] = test system: human colorectal cancer cell line (GP2D); assay: Anti-tumor efficacy in mouse transplanted tumor model of human colorectal cancer cell line (GP2D); format: in vivo, mice (BALB/c nude); conditions: 30mpk, PO*BID, Day 14
[5] = test system: human colorectal cancer cell line (GP2D); assay: as above; format: in vivo, mice (BALB/c nude); conditions: PO*BID
Excerpt: 8-10 week old female conventional immunodeficient mice (BALB/c nude) with a body weight of 18 g-22 g were used as experimental animals, and a transplanted tumor model of human colorectal cancer cell line (GP2D) was used to conduct in vivo efficacy experiments to test the anti-tumor results of the example compounds after gavage administration.
The example compounds of the present invention, made in house.
A certain amount of the example compound was weighed, and an appropriate amount of 10% vehicle (Solutol HS15) was added. The mixture was stirred on a magnetic stirrer for 0.5 h to formulate a homogeneous suspension at the desired concentration.
The human colorectal cancer cell line (GP2D) was derived from COBIOER BIOSCIENCES CO., LTD, cultured on DMEM medium (Gibco, 11995-065) supplemented with 10% fetal calf serum (Gibco, 10091-148) and 1% penicillin/streptomycin (Gibco, 15140-122) and observed under a microscope (Thermo Fisher, 311). The cells were routinely passaged when the cells reached 80%-90% confluence in the culture flask. The passaged cells were cultured in a 37°C, 5% CO2 incubator (Thermo Fisher, 311).
Under aseptic conditions, human colorectal cancer cells (GP2D) in the logarithmic growth phase were harvested using 0.25% trypsin-EDTA (Gibco, 25200-056), washed and resuspended with phosphate buffer. The cell suspension was mixed with Matrigel (Corning, 356234) at a 1 : 1 ratio (v/v) and implanted subcutaneously into the right anterior dorsal region of immunodeficient mice (BALB/c nude). Each mouse was inoculated with 5*10^6 cells in a volume of 100 microliters (µL). After inoculation, when the tumor volume reached 100-200 mm^3, the mice would be evenly randomized into 5 groups based on the tumor size, with 5 mice per group, for in vivo efficacy experiments. The positive control group was the compound MRTX-1133, and the negative control group was the vehicle group.
Mode of administration: The positive control group was intraperitoneally injected, and the example compounds were administered orally.
Twice a week, the long and short diameters of the tumor were measured using a vernier caliper, and the tumor volume (mm^3) was calculated using the formula: V = 0.5*D*d*d, where D and d are the long and short diameters of the tumor, respectively. The anti-tumor efficacy was determined by dividing the average increase in tumor volume of compound-treated animals by the average increase in tumor volume of untreated animals. The calculation formula for tumor inhibition rate was: When there is no tumor regression, TGI(%) = 100-[(Vt-V0) administration group/(Vt-V0) vehicle control group]*100%. When tumor regression occurs, TGI(%) = [1-(V1-V0) administration group/V0 vehicle control group]* 100%. All animals were euthanized after the experiment.

[6] = Balb/c mice, intravenously (IV), 1 mg/kg, read-out: AUCo-∞
[7] = Balb/c mice, intravenously (IV), 1 mg/kg
[8] = PO, 30 mg/kg, male Balb/c mice, overnight fasting, read-out: AUC0-∞
[9] = PO, 30 mg/kg, male Balb/c mice, overnight fasting

Row | Molecule | AUC(0-inf) [1, 6] [ng·h/mL] | C0 [1, 7] [ng/mL] | clearance [1, 7] [mL/min/kg] | half-life [1, 7] [h] | AUC(0-inf) [1, 8] [ng·h/mL] | Cmax [1, 9] [ng/mL] | half-life [1, 9] [h] | Tmax [1, 9] [h] | Remaining rate (%) 0 min [2] [%] | Remaining rate (%) 15 min [2] [%] | Remaining rate (%) 30 min [2] [%] | Remaining rate (%) 60 min [2] [%] | Remaining rate (%) 120 min [2] [%] | half-life [2] [h] | Remaining rate (%) 0 min [3] [%] | Remaining rate (%) 15 min [3] [%] | Remaining rate (%) 30 min [3] [%] | Remaining rate (%) 60 min [3] [%] | Remaining rate (%) 120 min [3] [%] | half-life [3] [h] | further results
1 | [2H]C([2H])([2H])[C@@H]1Oc2nc(-c3cc(N)cc(Cl)c3C(F)(F)F)c(F)c3nc(OCC4(CN5CCC(=NOC)CC5)CC4)nc(c23)N2C[C@H]3CC[C@H](N3)[C@@H]12 [Example 339] | 133 | 188 | 125 | 4.8 | 476 | 143 | 1.8 | 1 | – | – | – | – | – | – | – | – | – | – | – | – | F ([1]; male Balb/c mice): 13.8%
2 | C#Cc1c(F)ccc2cc(O)cc(-c3nc4c5c(nc(OCC6(CN7CCC(=C(F)F)CC7)CC6)nc5c3F)N3C[C@H]5CC[C@H](N5)[C@H]3[C@H](C)O4)c12 [Example 19-1, 4-((5S,5aS,6S,9R)-12-((1-((4-(difluoromethylene)piperidin-1-yl)methyl)cyclopropyl)methoxy)-1-fluoro-5-methyl-5a,6,7,8,9,10-hexahydro-5H-4-oxa-3,10a,11,13,14-pentaaza-6,9-methylnaphtho[1,8-ab]hept-2-yl)-5-ethynyl-6-fluoronaphthalene-2-ol] | 476 | 904 | 35 | 11.2 | 1610 | 316 | 7.2 | 1 | 100.00 | 101.30 | 98.20 | 91.51 | 92.09 | 27.4 | 100.00 | 96.27 | 91.39 | 95.69 | 94.09 | 86.3 | F ([1]; male Balb/c mice): 11.2%
3 | 4-((5S,5aS,6R,9S)-12-((1-((((R)-4-(difluoromethylene)-2-methylpiperidin-1-yl)methyl)cyclopropyl)methoxy)-1-fluoro-5-(methyl-d3)-5a,6,7,8,9,10-hexahydro-5H-4-oxa-3,10a,11,13,14-pentaaza-6,9-methylnaphtho[1,8-ab]hept-2-yl)-5-ethynyl-6-fluoronaphthalen-2-ol [Example 162] | – | – | – | – | – | – | – | – | – | – | – | – | – | – | – | – | – | – | – | – | Tumor volume (mm^3, Mean ± SD) Day 14 [4]: 130 mm^3; Tumor volume (mm^3, Mean ± SD) Day 0 ([5]; 30mpk): 167 mm^3; TGI(%) Day 14 ([5]; 30mpk, Day 14): 122.15%; ΔT/ΔC(%) Day 14 ([5]; 30mpk, Day 14): 16.47%; Tumor volume (mm^3, Mean ± SD) Day 0 ([5]; 100mpk): 167 mm^3; TGI(%) Day 14 ([5]; 100mpk, Day 14): 133.67%; Tumor volume (mm^3, Mean ± SD) Day 14 ([5]; 100mpk, Day 14): 111 mm^3; ΔT/ΔC(%) Day 14 ([5]; 100mpk, Day 14): 14.04%
4 | C#Cc1c(F)ccc2cc(O)cc(-c3nc4c5c(nc(OCC6(CN7CCC(=NOC)CC7)CC6)nc5c3F)N3C[C@H]5CC[C@H](N5)[C@H]3[C@H](C)O4)c12 [Example 35-1, 1-((1-((((5S,5aS,6S,9R)-2-(8-ethynyl-7-fluoro-3-hydroxynaphthalen-1-yl)-1-fluoro-5-methyl-5a,6,7,8,9,10-hexahydro-5H-4-oxa-3,10a,11,13,14-pentaaza-6,9-methylenenaphtho[1,8-ab]heptalen-12-yl)oxo)methyl)cyclopropyl)methyl)piperidin-4-one O-methyloxime formate] | 144 | 693 | 116 | 3.2 | – | – | – | – | – | – | – | – | – | – | – | – | – | – | – | – | –
5 | CON=C1CCN(CC2(COc3nc4c5c(nc(-c6cc(N)cc(Cl)c6C(F)(F)F)c(F)c5n3)O[C@@H](C)[C@@H]3[C@@H]5CC[C@H](CN43)N5)CC2)CC1 [Example 337, 1-((1-((((5S,5aS,6S,9R)-2-(5-amino-3-chloro-2-(trifluoromethyl)phenyl)-1-fluoro-5-methyl-5a,6,7,8,9,10-hexahydro-5H-4-oxa-3,10a,11,13,14-pentaaza-6,9-methylnaphtho[1,8-ab]heptene-12-yl)oxy)methyl)cyclopropyl)methyl)piperidin-4-one O-methyloxime] | – | – | – | – | 632 | 204 | 1.7 | 1 | – | – | – | – | – | – | – | – | – | – | – | – | –
6 | C#Cc1c(F)ccc2cc(O)cc(-c3nc4c5c(nc(OCC6(CN7CCC(=C(F)F)CC7)CC6)nc5c3F)N3C[C@H]5CC[C@H](N5)[C@H]3CO4)c12 [Example 1-1, 4-((5aS,6S,9R)-12-((1-((4-(difluoromethylene)piperidin-1-yl)methyl)cyclopropyl)methoxy)-1-fluoro-5a,6,7,8,9,10-hexahydro-5H-4-oxa-3,10a,11,13,14-pentaaza-6,9-methylenenaphtho[1,8-ab]heptalene-2-yl)-5-ethynyl-6-fluoronaphthalen-2-ol] | 583 | 886 | 28.6 | 8.6 | 2110 | 227 | 9.1 | 0.5 | 100.00 | 94.74 | 96.27 | 96.21 | 98.50 | 146 | 100.00 | 95.76 | 92.93 | 88.38 | 80.60 | 13.5 | F ([1]; male Balb/c mice): 12.1%
7 | [2H]C([2H])(Oc1nc2c3c(nc(-c4cc(O)cc5ccc(F)c(C#C)c45)c(F)c3n1)O[C@@H](C)[C@@H]1[C@@H]3CC[C@H](CN21)N3)C1(C([2H])([2H])N2CCC(=CF)CC2)CC1 [Example 291, 5-ethynyl-6-fluoro-4-((5S,5aS,6S,9R)-1-fluoro-12-((1-((4-(fluoromethylene)piperidin-1-yl)methyl-d2)cyclopropyl)methoxy-d2)-5-methyl-5a,6,7,8,9,10-hexahydro-5H-4-oxa-3,10a,11,13,14-pentaaza-6,9-methylnaphtho[1,8-ab]hept-2-yl)naphthalen-2-ol] | – | – | – | – | – | – | – | – | 100.00 | 97.50 | 82.58 | 81.82 | 63.23 | 3.08 | 100.00 | 99.67 | 102.83 | 103.48 | 98.20 | 38.3 | –
8 | [2H]C([2H])([2H])[C@@H]1Oc2nc(-c3cc(O)cc4ccc(F)c(C#C)c34)c(F)c3nc(OCC4(CN5CCC(=CF)CC5)CC4)nc(c23)N2C[C@H]3CC[C@H](N3)[C@@H]12 [Example 164] | – | – | – | – | – | – | – | – | 100.00 | 99.34 | 95.56 | 101.65 | 100.99 | 149 | 100.00 | 97.07 | 93.36 | 97.21 | 95.03 | 91.6 | –
